{"source": "ChEMBL document CHEMBL1149709", "about": "“Synthesis and SAR of 2-aryl pyrido[2,3-d]pyrimidines as potent mGlu5 receptor antagonists” (Bioorg Med Chem Lett, 2007)"}
{"molecular_target": "Metabotropic glutamate receptor 5 (Rattus norvegicus, UniProt P31424)", "sequence (P31424 whole entry)": "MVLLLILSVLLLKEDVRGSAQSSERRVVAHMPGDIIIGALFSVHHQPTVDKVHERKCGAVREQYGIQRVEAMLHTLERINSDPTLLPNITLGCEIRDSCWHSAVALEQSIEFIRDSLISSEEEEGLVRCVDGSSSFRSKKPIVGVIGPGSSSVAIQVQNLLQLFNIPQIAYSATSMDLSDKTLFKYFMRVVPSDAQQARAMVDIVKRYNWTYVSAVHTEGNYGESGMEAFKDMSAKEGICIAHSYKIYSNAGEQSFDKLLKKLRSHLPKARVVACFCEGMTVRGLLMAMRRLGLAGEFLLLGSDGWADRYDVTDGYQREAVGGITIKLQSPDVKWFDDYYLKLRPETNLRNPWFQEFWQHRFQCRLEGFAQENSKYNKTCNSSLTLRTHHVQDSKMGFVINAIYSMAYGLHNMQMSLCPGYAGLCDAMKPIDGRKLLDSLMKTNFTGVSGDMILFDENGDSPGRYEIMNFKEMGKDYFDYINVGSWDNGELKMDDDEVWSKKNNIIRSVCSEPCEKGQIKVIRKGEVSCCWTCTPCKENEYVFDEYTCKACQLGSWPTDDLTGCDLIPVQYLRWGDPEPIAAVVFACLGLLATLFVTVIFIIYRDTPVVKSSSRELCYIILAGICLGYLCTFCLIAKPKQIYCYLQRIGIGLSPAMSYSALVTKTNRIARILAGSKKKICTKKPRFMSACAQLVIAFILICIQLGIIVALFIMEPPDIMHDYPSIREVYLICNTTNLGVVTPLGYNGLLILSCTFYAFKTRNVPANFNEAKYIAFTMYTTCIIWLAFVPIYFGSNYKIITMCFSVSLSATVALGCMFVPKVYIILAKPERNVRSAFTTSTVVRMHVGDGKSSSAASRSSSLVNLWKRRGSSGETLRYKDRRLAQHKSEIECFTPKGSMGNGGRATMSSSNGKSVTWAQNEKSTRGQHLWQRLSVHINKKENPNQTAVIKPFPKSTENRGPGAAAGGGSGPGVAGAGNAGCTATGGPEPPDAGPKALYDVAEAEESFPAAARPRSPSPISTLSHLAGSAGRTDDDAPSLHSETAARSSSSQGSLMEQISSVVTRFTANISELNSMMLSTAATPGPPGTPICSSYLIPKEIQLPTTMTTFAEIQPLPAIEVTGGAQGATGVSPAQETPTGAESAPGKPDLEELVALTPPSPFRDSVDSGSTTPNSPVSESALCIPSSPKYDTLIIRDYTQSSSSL", "test": "Antagonistic activity at rat mGluR5 expressed in CHO cells assessed as inhibition of quisqualate stimulated calcium mobilization by FLIPR technology", "assay_type": "functional, cell-based", "details": "not given; call rule not given here", "units": {"IC50": "µM"}}
{"smiles": "Cc1ccc2cnc(-c3ccc(Cl)c(Cl)c3)nc2n1", "IC50": "> 30"}
{"smiles": "Cc1cccc(-c2ncc3ccc(C)nc3n2)c1", "IC50": 0.053}
{"smiles": "Cc1ccc2cnc(-c3ccc(C#N)cc3)nc2n1", "IC50": "> 30"}
{"smiles": "N#Cc1cccc(-c2ncc3cccnc3n2)c1", "IC50": "> 26.1"}
{"smiles": "COc1cc(C#N)cc(-c2ncc3ccc(C)nc3n2)c1", "IC50": 0.0012}
{"smiles": "COC(=O)c1ccc(-c2ncc3ccc(C)nc3n2)cc1", "IC50": "> 30"}
{"smiles": "COc1cc(C#N)cc(-c2ncc3cccnc3n2)c1", "IC50": 0.00495}
{"smiles": "Cc1cc(F)cc(-c2ncc3ccc(C)nc3n2)c1", "IC50": 0.0397}
{"smiles": "Cc1ccc2cnc(-c3cccc(C#N)c3)nc2n1", "IC50": 0.24}
{"smiles": "COc1cccc(-c2ncc3ccc(C)nc3n2)c1", "IC50": 1.5}
{"smiles": "Cc1ccc2cnc(-c3ccccc3)nc2n1", "IC50": 2.7}
{"smiles": "Cc1ccc2cnc(-c3cccc(S(C)(=O)=O)c3)nc2n1", "IC50": "> 30"}
{"smiles": "Cc1ccc2cnc(-c3ccc(Cl)cc3Cl)nc2n1", "IC50": "> 30"}
{"smiles": "Brc1cccc(-c2ncc3cccnc3n2)c1", "IC50": 0.333}
{"smiles": "Cc1ccc2cnc(-c3ccc(Br)cc3)nc2n1", "IC50": "> 30"}
{"smiles": "Cc1ccc2cnc(-c3cccc(Br)c3)nc2n1", "IC50": 0.038}
{"smiles": "COc1ccccc1-c1ncc2ccc(C)nc2n1", "IC50": "> 30"}
{"smiles": "COc1cc(OC)cc(-c2ncc3ccc(C)nc3n2)c1", "IC50": 0.179}
{"smiles": "Cc1ccc2cnc(-c3cccc(CN)c3)nc2n1", "IC50": "> 30"}
{"smiles": "Cc1ccc2cnc(-c3cc(Cl)cc(Cl)c3)nc2n1", "IC50": 0.00072}
{"smiles": "Cc1cc(F)cc(-c2ncc3cccnc3n2)c1", "IC50": 0.321}
{"smiles": "COc1cc(-c2ncc3ccc(C)nc3n2)cc(OC)c1OC", "IC50": "> 30"}
{"smiles": "Clc1cc(Cl)cc(-c2ncc3cccnc3n2)c1", "IC50": 0.228}
{"tested_on": "Rattus norvegicus", "test": "Effect on rat monosodium iodoacetate model of osteoarthritis pain assessed as inhibition of change in hind paw weight at 10 mg/kg, po after 2 hrs", "assay_type": "organism-based", "design": "dose 10 mg/kg, route oral", "details": "in vivo"}
{"smiles": "COc1cc(C#N)cc(-c2ncc3ccc(C)nc3n2)c1", "Activity": "Active"}
{"tested_on": "Rattus norvegicus", "test": "Effect on rat monosodium iodoacetate model of osteoarthritis pain assessed as inhibition of change in hind paw weight at 10 mg/kg, po after 4 hrs", "assay_type": "organism-based", "design": "dose 10 mg/kg, route oral", "details": "in vivo"}
{"smiles": "COc1cc(C#N)cc(-c2ncc3ccc(C)nc3n2)c1", "Activity": "Active"}
